This passage reports T/C results from PubChem BioAssay AID192 (DTP/NCI, 2004).

Each structure is given as a SMILES string. Several values for one entry are separate records, joined by “and”; a condition that tells them apart may be missing. Identical values can stand only once. Inconclusive results and toxic doses are left out.

The test has as its system BDF1 mice, B16 melanoma ip, median survival T/C. Nature of the test: NCI In Vivo Anticancer Drug Screen. Data for tumor model B16 Melanoma (intraperitoneal) in B6D2F1 (BDF1) mice. To be noted: endpoint: median survival time, higher = longer survival. The essentials:
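Tumor-bearing mice received test compound or vehicle. Survival or tumor size was then measured in both groups. The treated-group figure was divided by the control-group figure.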

Setting [1] is: dose: 50.0 mg/kg/injection, schedule: Q01DX009 (ip), vehicle: Klucel (hydroxypropylcellulose) (HPC).
Where [2] appears, read: dose: 200.0 mg/kg/injection, schedule: Q01DX009 (ip), vehicle: Klucel (hydroxypropylcellulose) (HPC).
The mark [3] stands for this setting: dose: 100.0 mg/kg/injection, schedule: Q01DX009 (ip), vehicle: Klucel (hydroxypropylcellulose) (HPC).
The mark [4] stands for this setting: dose: 400.0 mg/kg/injection, schedule: Q01DX009 (ip), vehicle: Klucel (hydroxypropylcellulose) (HPC).
The mark [5] stands for this setting: dose: 25.0 mg/kg/injection, schedule: Q01DX009 (ip), vehicle: Klucel (hydroxypropylcellulose) (HPC).
Where [6] appears, read: dose: 6.25 mg/kg/injection, schedule: Q01DX009 (ip), vehicle: saline.
Setting [7] is: dose: 12.5 mg/kg/injection, schedule: Q01DX009 (ip), vehicle: saline.
Setting [8] is: dose: 1.0 mg/kg/injection, schedule: Q01DX009 (ip), vehicle: saline with Tween-80.

As for `COC1=C(N)C(=O)c2nc(-c3nc(C(=O)O)c(C)c(-c4ccc(OC)c(OC)c4O)c3N)ccc2C1=O`, the T/C is, setting by setting: (dose: 0.03 mg/kg/injection, schedule: Q01DX009 (ip), vehicle: saline) 113 % of control; (dose: 0.05 mg/kg/injection, schedule: Q01DX009 (ip), vehicle: saline) 102 % of control; (dose: 0.1 mg/kg/injection, schedule: Q01DX009 (ip), vehicle: saline) 102 % of control; (dose: 0.2 mg/kg/injection, schedule: Q01DX009 (ip), vehicle: saline) 113 % of control; (dose: 0.4 mg/kg/injection, schedule: Q01DX009 (ip), vehicle: saline) 100 % of control; (dose: 25.0 micrograms/kg/injection, schedule: Q01DX009 (ip), vehicle: saline) 100 % of control. In addition, the T/C runs as follows: (dose: 50.0 micrograms/kg/injection, schedule: Q01DX009 (ip), vehicle: saline) 111 % of control; (dose: 100.0 micrograms/kg/injection, schedule: Q01DX009 (ip), vehicle: saline) 112 % of control; (dose: 200.0 micrograms/kg/injection, schedule: Q01DX009 (ip), vehicle: saline) 104 % of control.

For `O=C(NC(CSC(=O)OCc1ccccc1)C(=O)Oc1ccc([N+](=O)[O-])cc1)OCc1ccccc1` (stereo not drawn), the T/C runs as follows: under setting [1], 105 % of control; under setting [2], 100 % of control.

Consider `COc1ccc(NC(=S)Nc2ccc(OC)cc2)cc1`, for which the T/C under setting [3] is 106 % of control, the T/C under setting [2] was 96 % of control and the T/C under setting [4] is 93 % of control.

On to `CCNC(C)(C)C(S)c1ccc(Cl)s1` (stereo not drawn), for which the T/C is 97 % of control (dose: 18.75 mg/kg/injection, schedule: Q01DX009 (ip), vehicle: saline with Tween-80); 97 % of control under setting [5]; 101 % of control (dose: 37.5 mg/kg/injection, schedule: Q01DX009 (ip), vehicle: saline with Tween-80); 101 % of control under setting [1]; 100 % of control (dose: 75.0 mg/kg/injection, schedule: Q01DX009 (ip), vehicle: saline with Tween-80); 95 % of control under setting [3]. For the same molecule, the T/C (dose: 150.0 mg/kg/injection, schedule: Q01DX009 (ip), vehicle: saline with Tween-80) was 106 % of control.

For the molecule `O=C1C2C(C(=O)N1c1ccc(OCc3ccccc3)cc1)C1c3ccccc3C2C2CCCCN21` (stereo not drawn), the T/C by setting is: (dose: 3.13 mg/kg/injection, schedule: Q01DX009 (ip), vehicle: water) 103 % of control; (dose: 6.25 mg/kg/injection, schedule: Q01DX009 (ip), vehicle: water) 98 % of control; (dose: 12.5 mg/kg/injection, schedule: Q01DX009 (ip), vehicle: water) 104 % of control.

As for `O=C1CC2C=CCC12` (stereo not drawn), the T/C was 107 % of control (dose: 100.0 mg/kg/injection, schedule: Q01DX009 (ip), vehicle: saline with Tween-80); 100 % of control (dose: 200.0 mg/kg/injection, schedule: Q01DX009 (ip), vehicle: saline with Tween-80); 91 % of control (dose: 400.0 mg/kg/injection, schedule: Q01DX009 (ip), vehicle: saline with Tween-80).

Turning to `O=[N+]([O-])O.O=[N+]([O-])O.[NH-]C1CCCCC1[NH-].[Pt+2]` (stereo not drawn), the T/C reads like this: (dose: 0.25 mg/kg/injection, schedule: Q01DX009 (ip), vehicle: dextrose) 110 % of control; (dose: 0.5 mg/kg/injection, schedule: Q01DX009 (ip), vehicle: dextrose) 120 % of control; (dose: 1.0 mg/kg/injection, schedule: Q01DX009 (ip), vehicle: dextrose) 160 % of control; (dose: 2.0 mg/kg/injection, schedule: Q01DX009 (ip), vehicle: dextrose) 183 % of control.

In the case of `O=C(O)CC(=O)O.[NH-]CC[NH-].[Pt+2]`, the T/C reads like this: (dose: 3.12 mg/kg/injection, schedule: Q01DX009 (ip), vehicle: dextrose) 119 % of control; (dose: 12.5 mg/kg/injection, schedule: Q01DX009 (ip), vehicle: dextrose) 171 % of control; under setting [5], 197 % of control and 214 % of control.

As for `C=CCN(C(=O)OCC)c1ccccc1`, the T/C runs as follows: under setting [3], 100 % of control; under setting [2], 97 % of control.

Take `CC1(C)N=C(N)N=C(N)N1c1ccc(CCC(=O)Nc2ccc(S(=O)(=O)F)cc2)c(Cl)c1`: the T/C by setting is: under setting [6], 104 % of control; under setting [7], 108 % of control.

Consider `C[Se]c1ncnc2c1c(C#N)cn2C1OC(CO)C(O)C1O` (stereo not drawn), for which the T/C is, setting by setting: (dose: 3.12 mg/kg/injection, schedule: Q01DX009 (ip), vehicle: Klucel (hydroxypropylcellulose) (HPC)) 92 % of control; (dose: 12.5 mg/kg/injection, schedule: Q01DX009 (ip), vehicle: Klucel (hydroxypropylcellulose) (HPC)) 97 % of control; under setting [5], 90 % of control.

For `CCC[CH2][Sn]([CH2]CCC)([CH2]CCC)[O]C(=O)CC[S][Sn]([CH2]CCC)([CH2]CCC)[CH2]CCC`, the T/C is 92 % of control under setting [8] and 95 % of control (dose: 2.0 mg/kg/injection, schedule: Q01DX009 (ip), vehicle: saline with Tween-80).

On to `CCCC(=O)Nc1ncnc2c1ncn2C1OC2COP(=O)(O)OC2C1OC(=O)CCC` (stereo not drawn), for which the T/C is 100 % of control (dose: 50.0 mg/kg/injection, schedule: Q01DX009 (ip), vehicle: saline); 94 % of control (dose: 100.0 mg/kg/injection, schedule: Q01DX009 (ip), vehicle: saline); 89 % of control (dose: 200.0 mg/kg/injection, schedule: Q01DX009 (ip), vehicle: saline).

As for `S=C([S][Sn]([c]1ccccc1)([c]1ccccc1)[c]1ccccc1)N1CCCCC1`, the T/C was 100 % of control (dose: 3.12 mg/kg/injection, schedule: Q01DX009 (ip), vehicle: saline with Tween-80); 107 % of control (dose: 6.25 mg/kg/injection, schedule: Q01DX009 (ip), vehicle: saline with Tween-80); 103 % of control (dose: 12.5 mg/kg/injection, schedule: Q01DX009 (ip), vehicle: saline with Tween-80); 99 % of control (dose: 25.0 mg/kg/injection, schedule: Q01DX009 (ip), vehicle: saline with Tween-80).

As for `COc1ccc(NCc2ccc(C)cc2)cc1`, the T/C by setting is: under setting [3], 91 % of control; under setting [2], 94 % of control; under setting [4], 91 % of control.

For `CC1=C(/C=C/C(C)=C/C=C/C(C)=C/C(=O)O)C(C)(C)CCC1`, the T/C is 98 % of control (dose: 0.5 mg/kg/injection, schedule: Q01DX009 (ip), vehicle: saline with Tween-80); 90 % of control under setting [8]; 92 % of control (dose: 8.0 mg/kg/injection, schedule: Q01DX009 (ip), vehicle: saline with Tween-80); 86 % of control and 88 % of control (2×) (dose: 16.0 mg/kg/injection, schedule: Q01DX009 (ip), vehicle: saline with Tween-80); 86 % of control and 94 % of control (dose: 32.0 mg/kg/injection, schedule: Q01DX009 (ip), vehicle: saline with Tween-80); 93 % of control (dose: 64.0 mg/kg/injection, schedule: Q01DX009 (ip), vehicle: saline with Tween-80).

As to `CN1CCN(CCCN2c3ccccc3Sc3ccc(C(F)(F)F)cc32)CC1`, the T/C by setting is: (dose: 0.58 mg/kg/injection, schedule: Q01DX009 (ip), vehicle: saline) 117 % of control; (dose: 0.78 mg/kg/injection, schedule: Q01DX009 (ip), vehicle: saline) 102 % of control; (dose: 1.17 mg/kg/injection, schedule: Q01DX009 (ip), vehicle: saline) 112 % of control; (dose: 1.56 mg/kg/injection, schedule: Q01DX009 (ip), vehicle: saline) 102 % of control; (dose: 2.34 mg/kg/injection, schedule: Q01DX009 (ip), vehicle: saline) 112 % of control; (dose: 3.12 mg/kg/injection, schedule: Q01DX009 (ip), vehicle: saline) 112 % of control and 110 % of control. In addition, the T/C (dose: 4.68 mg/kg/injection, schedule: Q01DX009 (ip), vehicle: saline) is 97 % of control; the T/C under setting [6] is 102 % of control and 95 % of control; the T/C (dose: 9.37 mg/kg/injection, schedule: Q01DX009 (ip), vehicle: saline) is 115 % of control; the T/C under setting [7] is 105 % of control and 102 % of control; the T/C (dose: 25.0 mg/kg/injection, schedule: Q01DX009 (ip), vehicle: saline) is 102 % of control.

Turning to `Nc1ccc(OCc2ccc(S(=O)(=O)F)c(Cl)c2)c(Cl)c1`, the T/C reads like this: under setting [3], 110 % of control; under setting [2], 110 % of control.

For the molecule `CCC[CH2][Sn]1([CH2]CCC)[O]OC(c2ccc(OC)cc2)[O]1` (stereo not drawn), the T/C (dose: 3.12 mg/kg/injection, schedule: Q01DX009 (sc), vehicle: olive oil, sesame oil, peanut oil) is 93 % of control.
